Test results: US20260216216A1, “(N-ALKYLDIHYDROL-2H-OXAZINYL)-CANNABIDIOL AS ANTI-PROLIFERATIVE AGENT AND PROCESS FOR PREPARATION THEREOF” (COUNCIL OF SCIENTIFIC AND INDUSTRIAL RESEARCH, priority 2022, published 2026)
Where two headings read alike, the source gives them in different places.

Tests used:
[1] = system: HCT-116 (colorectal cancer) cell line; assay: SRB in-vitro cytotoxicity assay, HCT-116; conditions: Homo sapiens
Method: (§1) All the ring annulated analogues of cannabinoid were evaluated for their cytotoxicity against number of human cancer cell lines. To evaluate the in-vitro cytotoxicity, a sulphorhodamine B (SRB) assay was carried out. SRB is a negatively charged pink aminoxanthine dye that binds to the basic amino acid of cells in mildly acidic conditions and is removed in basic conditions. […] When cells reached 60-70% confluency, trypsinized and seeded in 96 well plates according to their inoculation density and incubated for 24 hours to attain their proper morphology. Next-day cells were again incubated for 48 hours with test compounds or paclitaxel (positive control). Next, cells were fixed with 50% of ice-cold TCA for 1 hours, washed with distilled water, and kept for air drying. Air-dried plates were then stained with 0.4% SRB dye for 30 minutes and subsequently with water and 1% v/v glacial acetic acid were then kept for air drying. […] The viability of cells is measured based on bound dye after fixation, which is measured by absorbance at 540 nm.

[2] = system: MCF-7 (breast cancer) cell line; assay: SRB in-vitro cytotoxicity assay, MCF-7; conditions: Homo sapiens
Method: as §1

[3] = system: A549 (lung cancer) cell line; assay: SRB in-vitro cytotoxicity assay, A549; conditions: Homo sapiens
Method: as §1

[4] = system: U251 (glioblastoma) cell line; assay: SRB in-vitro cytotoxicity assay, U251; conditions: Homo sapiens
Method: as §1

[5] = system: Mia-PaCa (pancreatic cancer) cell line; assay: SRB in-vitro cytotoxicity assay, Mia-PaCa; conditions: Homo sapiens
Method: as §1

[6] = system: PC-3 (prostate cancer) cell line; assay: SRB in-vitro cytotoxicity assay, PC-3; conditions: Homo sapiens
Method: as §1

[7] = in vitro; conditions: human
Method: as §1

[8] = system: HEK-293 (normal cell lines); assay: SRB in-vitro cytotoxicity assay, HEK-293; conditions: Homo sapiens, HEK293, read-out: inhibition against HEK-293 cell lines
Method: as §1

[9] = HCT-116, 48 h, read-out: Cytotoxicity (in vitro cell inhibition) HCT-116
[10] = HCT-116, read-out: inhibition against HCT-116 cell lines
[11] = MCF7, 48 h, read-out: Cytotoxicity (in vitro cell inhibition) MCF-7
[12] = MCF7, read-out: inhibition against MCF-7 cell lines
[13] = A549, 48 h, read-out: Cytotoxicity (in vitro cell inhibition) A549
[14] = A549, read-out: inhibition against A549 cell lines
[15] = U-251, 48 h, read-out: Cytotoxicity (in vitro cell inhibition) U251
[16] = U-251, read-out: inhibition against U251 cell lines
[17] = MIA PaCa-2, 48 h, read-out: Cytotoxicity (in vitro cell inhibition) Mia-PaCa
[18] = MIA PaCa-2, read-out: inhibition against Mia-PaCa cell lines
[19] = 48 h, read-out: Cytotoxicity (in vitro cell inhibition) PC3
[20] = PC-3, read-out: inhibition against PC3 cell lines

SMILES	inhibition at 20 µM [1, 9]	inhibition at 20 µM [1, 10]	inhibition at 20 µM [2, 11]	inhibition at 20 µM [2, 12]	inhibition at 20 µM [3, 13]	inhibition at 20 µM [3, 14]	inhibition at 20 µM [4, 15]	inhibition at 20 µM [4, 16]	inhibition at 20 µM [5, 17]	inhibition at 20 µM [5, 18]	inhibition at 20 µM [6, 19]	inhibition at 20 µM [6, 20]	inhibition at 20 µM [7]	inhibition at 20 µM [8]	inhibition at 48 h, 20 µM [7]
C=C(C)[C@@H]1CCC(C)=C[C@H]1c1c(O)cc(CCCCC)c2c1OCN(C1CCC1)C2 [Ih, (N-cyclobutyldihydrol-2H-oxazinyl)-cannabidiol]	50 to 70%	> 50%	> 70%	> 70%	50 to 70%	> 50%	50 to 70%	> 50%	> 70%	> 70%	> 70%	> 70%	50 to 70%	> 50%	–
CC(=O)O[C@H]1C(=O)[C@@]2(C)[C@H]([C@H](OC(=O)c3ccccc3)[C@]3(O)C[C@H](OC(=O)[C@H](O)[C@@H](NC(=O)c4ccccc4)c4ccccc4)C(C)=C1C3(C)C)[C@]1(OC(C)=O)CO[C@@H]1C[C@@H]2O [Paclitaxel, paclitaxel, reference compound]	> 70%	> 70%	> 70%	> 70%	> 70%	> 70%	> 70%	> 70%	> 70%	> 70%	> 70%	> 70%	–	> 70%	> 70%
